Test results reported in US20260200896A1, “INHIBITORS OF SPNS2 AND USES THEREOF” (NEW YORK UNIVERSITY, priority 2022, published 2026).

Tested on: Female C57BL/6 mice
Test: Animal study: lymphocytes and red blood cells in blood enumerated by hematology analyzer 24 hours after oral gavage
Type: in vivo
Details: oral gavage 400 micromol/kg, 24 hours later, vs vehicle (PEG300)
Procedure: Female C57BL/6 mice 6-8 weeks old were treated by oral gavage with vehicle (PEG300) or compound 510 at 400 micromol/kg. 24 hours later, lymphocytes and red blood cells (RBC) in blood were enumerated by hematology analyzer (XT-2000i). The results are depicted in FIG. 1.

number of red blood cells (RBC) in blood (FIG. 1B): remained unchanged
SMILES: CC(C)C(=O)N(CCO)[C@H]1CCN(c2nc3cc(F)c(F)cc3nc2-c2cccc(OC(F)(F)F)c2)C1 [Compound 510, (S)—N-(1-(6,7-difluoro-3-(3-(trifluoromethoxy)-phenyl)quinoxalin-2-yl)pyrrolidin-3-yl)-N-(2-hydroxyethyl)isobutyramide]
number of lymphocytes in blood (FIG. 1A): substantially reduced
